Experimental data taken from patent US20180244653A1, “SELECTIVE ALPHA-7 NICOTINIC RECEPTOR AGONISTS AND METHODS FOR MAKING AND USING THEM” (THE REGENTS OF THE UNIVERSITY OF CALIFORNIA, priority 2015, published 2018).
Where “and” joins values, the source holds several entries; their conditions need not be identical. Identical values can stand only once. Entries after “also recorded” stand apart in the source; their conditions may differ. Like-named read-outs stand apart in the source and are kept apart here.

Assays:
[1] = target: T1, 5HT3A receptors (Mus musculus, UniProt P23979); experiment: Intact cell competitive radioligand binding assay ([3H]-granisetron, SPA), LGIC-CNiFERs; settings: >10 = did not pass initial screen at 10 μM
T1 construct: expressed in transfected cells; host or cells: HEK293 cells co-expressing TN-XXL
T1 sequence (P23979 24-489): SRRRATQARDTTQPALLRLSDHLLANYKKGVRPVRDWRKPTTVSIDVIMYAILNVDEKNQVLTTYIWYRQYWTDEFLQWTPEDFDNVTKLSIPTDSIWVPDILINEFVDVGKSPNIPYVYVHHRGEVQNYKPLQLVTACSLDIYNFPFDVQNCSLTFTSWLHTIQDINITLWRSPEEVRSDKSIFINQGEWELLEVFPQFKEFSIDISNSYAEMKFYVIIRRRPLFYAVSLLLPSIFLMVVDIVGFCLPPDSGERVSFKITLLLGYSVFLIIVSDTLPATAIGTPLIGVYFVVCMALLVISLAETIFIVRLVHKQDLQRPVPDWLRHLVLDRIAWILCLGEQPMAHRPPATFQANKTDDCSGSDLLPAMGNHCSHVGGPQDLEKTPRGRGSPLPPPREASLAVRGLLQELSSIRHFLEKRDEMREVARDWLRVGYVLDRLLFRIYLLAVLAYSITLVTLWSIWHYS

[2] = target: T1, 5HT3A receptors; experiment: FRET functional assay (agonist/antagonist) using LGIC-CNiFERs; type: cell-based; settings: for Kd / Antagonist KA ± SD, 5HT3A: competitive antagonist (^C), vs 5-HT; for Kd: read-out: Antagonist KA ± SD, 5HT3A; for Functional properties at 5HT3A receptors (agonist / antagonist, type): functional screening and characterization; for EC50: read-out: Agonist EC50 ± SD, 5HT3A
Protocol: (§1) Initially, the agonist properties of tested compounds were assessed directly. […] All α7-nAChR functional assays were performed in the presence of PNU-120596, an α7-nAChR positive allosteric modulator (PAM), to increase signal and delay the sensitization state of α7-nAChRs enabling the measurement of more prolonged FRET signals.^29 Compounds having agonist responses of >0.20 were determined for EC50, and compounds having inhibition fraction of >0.50 were determined for KA.^25 EC50>13.3 μM and KA>10 μM which are a screening concentration for agonist and antagonist, respectively were reported compounds not taken for further in the screening of receptor occupation and responses.
(§2) Agonist and antagonist elicited responses were characterized using the above CNiFER cell expressing Cys-loop ligand-gated ion channel (LGIC) receptors. […] A 96-well black, clear-bottom microplate (Greiner bio-one, Germany) was coated with poly-D-lysine (Sigma-Aldrich, St. Louis, Mo.) 50 μL/well for 30 min and washed out with Phosphate-Buffered Saline (PBS) (Corning, Cellgro, Manassas, Va.) before plating the cells. After plating and incubation at 37° C. for 1 day, the media was replaced with 100 μL of artificial cerebrospinal fluid (aCSF: 121 mM NaCl, 5 mM KCl, 26 mM NaHCO3, 1.2 mM NaH2PO4H2O, 10 mM glucose, 2.4 mM CaCl2, 1.3 mM MgSO4, 5 mM HEPES, pH 7.4) for 4032 and 5HT3A receptors, whereas 10 μM PNU-120596 (Tocris Bioscience, Bristol, UK) in aCSF with 30 min incubation at 37° C. was used for α7-nAChR. The tested compounds were prepared in aCSF for all receptors except α7-nAChR, where 10 μM PNU-120596, a positive allosteric modulator (PAM) was used. The prepared compounds were added in a separate 96-well polypropylene plate (Costar, Corning, N.Y.). Experiments were conducted at 37° C. using 436-nm excitation. Emitted light was collected at 485 nm and 528 nm. Basal fluorescence was recorded for 30 s, followed by addition of 50 μL of ligand (first addition). Measurements were made at 3.84 s intervals for 2 min to measure the agonistic effect. […] Agonist and antagonist properties were sequentially screened at the final concentration of 13.3 and 10 μM, respectively, which differed from the screening concentration from intact cell binding assay (10 μM).

[3] = target: T2, α4β2-nAChRs (Homo sapiens, UniProt P17787+P43681); experiment: as above; type: cell-based; settings: for Functional properties at α4β2-nAChRs (agonist / antagonist, type): functional screening and characterization
T2 construct: expressed in transfected cells; host or cells: HEKtsA201 cells co-expressing TN-XXL
Protocol: as §1, §2

[4] = target: T3, α7-nAChRs (Homo sapiens, UniProt P36544); experiment: as above; type: cell-based; settings: for EC50: in presence of 10 μM PNU-120596, * partial agonist, read-out: Agonist EC50 ± SD, α7
T3 construct: expressed in transfected cells; host or cells: HEKtsA201 cells co-expressing TN-XXL
Protocol: as §1, §2

[5] = target: α7/5HT3A chimera receptor (hα7/m5HT3A), used for α7-nAChRs (UniProt P23979+P36544, M226I/T225I); experiment: Intact cell competitive radioligand binding assay ([3H]-(±)-epibatidine, SPA), LGIC-CNiFERs; settings: for Kd: read-out: Kd ± SD, α7-nAChRs, >10 = did not pass initial screen at 10 μM
[6] = target: T2, α4β2-nAChRs; experiment: as above; settings: 10 μM, more than 50% radioligand displacement
[7] = >10 = did not pass initial screen
[8] = read-out: Antagonist KA ± SD, α4β2
[9] = read-out: Antagonist KA ± SD, α4β2, non-competitive
[10] = non-competitive antagonist (^NC)
[11] = competitive antagonist (^C), >10 = did not pass initial screen, vs (±)-epibatidine
[12] = competitive antagonist (^C), >10 = did not pass initial screen, vs (±)-epibatidine, read-out: Antagonist KA ± SD, α4β2
[13] = Antagonist KA ± SD, α4β2, competitive antagonist (^C), >10 = did not pass initial screen, vs (±)-epibatidine

| Structure (SMILES) | Kd [2, 7] | Functional properties at 5HT3A receptors (agonist / antagonist, type) [2] | EC50 [2] | EC50 [4, 7] | Kd [5] | other results |
| --- | --- | --- | --- | --- | --- | --- |
| c1cc2cc(-c3cn(CCN4CCCCC4)nn3)ccc2[nH]1 [IND1, 5-(1-(2-(Piperidin-1-yl)ethyl)-1H-1,2,3-triazol-4-yl)-1H-indole] | > 10 µM | agonist and antagonist responses were not observed | > 10000 nM | 170 nM |  | Kd ([1]; read-out: Kd ± SD, 5HT3A): 5520 nM; Kd [3, 8]: > 10 µM; Fold increase in α7-nAChR agonist potency over lead compound TTIn-1 [4]: 3.5 fold |
| c1cc2cc(-c3cn(CCCN4CCCCC4)nn3)ccc2[nH]1 [IND2, 5-(1-(3-(Piperidin-1-yl)propyl)-1H-1,2,3-triazol-4-yl)-1H-indole] |  | agonist and antagonist responses were not observed |  | 2200 nM | 7.2 µM |  |
| CN1[C@@H]2CCC[C@H]1CC(n1cc(-c3ccc4[nH]ccc4c3)nn1)C2 (stereo partly drawn) [IND7, 5-(1-((1R,5S)-9-Methyl-9-azabicyclo[3.3.1]nonan-3-yl)-1H-1,2,3-triazol-4-yl)-1H-indole] |  | agonist and antagonist responses were not observed |  |  | 4.52 µM | Functional properties at α4β2-nAChRs (agonist / antagonist, type) [3]: weak antagonistic properties; Kd [3, 9]: 22.2 µM |
| CN1CCCC(n2cc(-c3ccc4[nH]ccc4c3)nn2)C1 (stereo not drawn) [IND11, 5-(1-(1-Methylpiperidin-3-yl)-1H-1,2,3-triazol-4-yl)-1H-indole] |  |  |  | 3300 nM | 5.07 µM |  |
| CN(C)CCn1cc(-c2ccc3[nH]ccc3c2)nn1 [IND12, 5-(1-(2-(N,N-Dimethylamino)ethyl)-1H-1,2,3-triazol-4-yl)-1H-indole] |  | mix-competitive antagonist |  | 5740 nM | 7.68 µM |  |
| c1cc2cc(-c3cn(CCN4CCCC4)nn3)ccc2[nH]1 [IND13, 5-(1-(2-(Pyrrolidin-1-yl)ethyl)-1H-1,2,3-triazol-4-yl)-1H-indole] |  |  |  | 2170 nM | 4.84 µM |  |
| O=Cc1c[nH]c2ccc(-c3cn(CCN4CCCCC4)nn3)cc12 [PPRD5, 5-((1-(2-Piperidin-1-yl)ethyl)-1,2,3-triazol-4-yl)-indole-3-carbaldehyde] | > 10 µM |  | > 10000 nM | 1050 ± 170 nM | 3.27 µM | Kd [3, 8]: > 10 µM |
| Cn1ccc2cc(-c3cn(CCN4CCCCC4)nn3)ccc21 [PPRD9, 1-(2-((1-Methyl-5-indolyl)-1,2,3-triazol-1-yl)ethyl)piperidine] |  | mixed (competitive,non-competive) antagonist |  | 12900 nM | 12.1 µM | Antagonist KA ± SD, 5HT3A [2, 7]: 15.1 ± 4.0^C, μM; Antagonist KA ± SD, 5HT3A, non-competitive [2, 10]: 56.0 ± 31.0^NC μM; Antagonist KA ± SD, α4β2 [3, 11]: 10.5 ± 3.1^C,^ μM; Functional properties at α4β2-nAChRs (agonist / antagonist, type) [3]: α4β2-nAChR antagonists; also recorded: mix-competitive antagonist; Antagonist KA ± SD, α4β2, non-competitive [3, 10]: 25.5 ± 12.8^NC μM |
| c1ccc2c(-c3cn(CCN4CCCCC4)nn3)c[nH]c2c1 [PPRD12] |  | competitive antagonist |  |  |  | Kd ([1]; read-out: Kd ± SD, 5HT3A): 2550 nM and 2600 nM; Antagonist KA ± SD, 5HT3A [2, 7]: 2.1 ± 0.3^C μM; Kd [3, 12]: >10 µM; Antagonist KA ± SD, α7 [4, 11]: 4.5 ± 1.5^C, μM; Functional properties at α7-nAChRs (agonist / antagonist) ([4]; functional screening and characterization): weak and non-selective α7-nAChR antagonists; Antagonist KA ± SD, α7, non-competitive [4, 10]: 11.3 ± 4.5^NC μM |
| COC(=O)c1cc(-c2cn(CCN3CCCCC3)nn2)ccc1O [PPRD14, Methyl 2-hydroxy-5-(1-(2-(piperidin-1-yl)ethyl)-1,2,3-triazol-4-yl)benzoate] | 1.44 µM and 1.4 µM | competitive antagonist |  | > 10000 nM | > 10 µM | Kd [3, 8]: > 10 µM; Kd ([4]; competitive antagonist (^C), >10 = did not pass initial screen, vs (±)-epibatidine, read-out: Antagonist KA ± SD, α7): > 10 µM |
| COC(=O)c1cc(-c2cn(CCN3CCCCC3)nn2)ccc1N [PPRD15, Methyl 2-amino-5-(1-(2-(piperidin-1-yl)ethyl)-1,2,3-triazol-4-yl)benzoate] | 6 µM | competitive antagonist |  | 3100 nM | 4.4 µM | Kd [3, 8]: > 10 µM |
| c1cc2c(cc1-c1cn(C3CN4CCC3CC4)nn1)OCO2 (stereo not drawn) [QND1, 3-(4-(Benzo-1,3-dioxol-5-yl)-1,2,3-triazol-1-yl)quinuclidine] |  |  | 300 ± 40 nM | 120 ± 40 nM | 0.16 µM | Kd ([1]; Kd ± SD, 5HT3A): 20 to 50 nM; Kd [3, 13]: > 10 µM |
| Nc1ccc(-c2cn(C3CN4CCC3CC4)nn2)cc1 (stereo not drawn) [QND2, 3-(4-Aminophenyl-1,2,3-triazol-1-yl)quinuclidine] |  | 5HT3A receptor agonist properties |  | 50 nM |  | Kd ([1]; read-out: Kd ± SD, 5HT3A): 1210 nM; EC50 ([2]; * partial agonist, >10 = did not pass initial screen): 1630 ± 290 nM; Kd [3, 12]: >10 µM; Fold increase in α7-nAChR agonist potency over lead compound TTIn-1 [4]: 20 fold |
| COc1ccc2cc(-c3cn(C4CN5CCC4CC5)nn3)ccc2c1 (stereo not drawn) [QND6, 3-(4-(6-Methoxynaphthalen-2-yl)-1,2,3-triazol-1-yl)quinuclidine] | > 10 µM |  | > 10000 nM | 22000 ± 6000 nM |  | Initial screening for binding to α4β2-nAChRs [6]: associate well with α4β2-nAChRs; Kd [3, 13]: 7 ± 4.5 µM; Functional properties at α4β2-nAChRs (agonist / antagonist, type) [3]: mix-competitive antagonist; Kd [3, 9]: 6.2 ± 0.4 µM |
| c1ccc2c(-c3cn(C4CN5CCC4CC5)nn3)c[nH]c2c1 (stereo not drawn) [QND12, 3-(4-(Indol-3-yl)-1,2,3-triazol-1-yl)quinuclidine] |  |  | 340 ± 130 nM | 450 ± 140 nM | 0.92 µM | Kd ([1]; Kd ± SD, 5HT3A): 20 to 50 nM and 20 nM; Kd [3, 13]: > 10 µM; Fold increase of Kd (α7-nAChRs) compared to IND8 [5]: 9 fold |
| COC(=O)c1cc(-c2cn(C3CN4CCC3CC4)nn2)ccc1N (stereo not drawn) [QND15, Methyl 2-amino-5-(1-(quinuclidin-3-yl)-1H-1,2,3-triazol-4-yl)benzoate] |  | 5HT3A receptor agonist properties | 260 ± 30 nM | 1340 nM | 3.61 µM | Kd ([1]; Kd ± SD, 5HT3A): 40 nM; Kd [3, 13]: 11.6 ± 1 µM; Functional properties at α4β2-nAChRs (agonist / antagonist, type) [3]: competitive antagonism; Fold lower affinity for α7-nAChRs than QND2 [5]: 10 fold |
